Consider 22 compounds from patent US20230277534A1 (Plexxikon Inc., priority 2011, published 2023).

What is called IC50 is the concentration that gives 50% inhibition. Low values mean inhibition by little substance, high ones a need for much substance.

A value given as a limit tells only on which side of the number the result lay.

The target in the test is B-Raf V600E (Homo sapiens (Human), UniProt P15056, V600E). Description: B-Raf V600E kinase biochemical activity assay (AlphaScreen, biotin-MEK1 substrate). The conditions noted are these: 100 μM ATP. As to the method: Assays for biochemical and cell based activity are known in the art, for example, as described in PCT publication WO 2007/002433, the disclosure of which is hereby incorporated by reference as it relates to such assays. For example, the biochemical activity IC50 values are determined with respect to inhibition of B-Raf V600E kinase activity or p-Erk kinase activity, where inhibition of phosphorylation of a peptide substrate is measured as a function of compound concentration. Compounds to be tested are diluted in dimethyl sulfoxide to a concentration of 0.1 mM. These are serially diluted 15 μL into 30 μL of dimethyl sulfoxide seven times in 96 well plates for a total of 8 dilution points, and for each dilution point 1 μL is added to a well of an assay plate. Plates are prepared such that each well in a 384 well plate contains 1 μL of compound in 10 μL volume with 0.1 ng Raf enzyme (i.e. any of B-Raf, c-Raf-1 or B-Raf V600E, Upstate Biotechnology or prepared by methods known to one of skill in the art), 50 mM HEPES, pH 7.0, 50 mM NaCl, 2 mM MgCl2, 1 mM MnCl2, 0.01% Tween-20, 1 mM DTT, and 100 nM biotin-MEK1 as substrate. The reaction is started with addition of 10 μL of 200 μM ATP (i.e. final 100 μM ATP). After incubation of the kinase reaction for 45 minutes at room temperature, 5 μL/well of Stop Solution is added (25 mM Hepes pH 7.5, 100 mM EDTA, 0.01% BSA with donor beads (Streptavidin coated beads, Perkin Elmer), acceptor beads (Protein A coated, Perkin Elmer), and anti phosphor MEK1/2 antibody (CellSignal), each at final concentration 10 μg/mL). The plates are incubated for 3 hours at room temperature and read on Envision reader (Perkin Elmer). Phosphorylation of Mek1 results in binding of the anti-phosphor-MEK1/2antibody and association of the donor and acceptor beads such that signal correlates with kinase activity. The signal vs. compound concentration is used to determine the IC50.
B-Raf V600E, sequence (P15056 whole entry V600E): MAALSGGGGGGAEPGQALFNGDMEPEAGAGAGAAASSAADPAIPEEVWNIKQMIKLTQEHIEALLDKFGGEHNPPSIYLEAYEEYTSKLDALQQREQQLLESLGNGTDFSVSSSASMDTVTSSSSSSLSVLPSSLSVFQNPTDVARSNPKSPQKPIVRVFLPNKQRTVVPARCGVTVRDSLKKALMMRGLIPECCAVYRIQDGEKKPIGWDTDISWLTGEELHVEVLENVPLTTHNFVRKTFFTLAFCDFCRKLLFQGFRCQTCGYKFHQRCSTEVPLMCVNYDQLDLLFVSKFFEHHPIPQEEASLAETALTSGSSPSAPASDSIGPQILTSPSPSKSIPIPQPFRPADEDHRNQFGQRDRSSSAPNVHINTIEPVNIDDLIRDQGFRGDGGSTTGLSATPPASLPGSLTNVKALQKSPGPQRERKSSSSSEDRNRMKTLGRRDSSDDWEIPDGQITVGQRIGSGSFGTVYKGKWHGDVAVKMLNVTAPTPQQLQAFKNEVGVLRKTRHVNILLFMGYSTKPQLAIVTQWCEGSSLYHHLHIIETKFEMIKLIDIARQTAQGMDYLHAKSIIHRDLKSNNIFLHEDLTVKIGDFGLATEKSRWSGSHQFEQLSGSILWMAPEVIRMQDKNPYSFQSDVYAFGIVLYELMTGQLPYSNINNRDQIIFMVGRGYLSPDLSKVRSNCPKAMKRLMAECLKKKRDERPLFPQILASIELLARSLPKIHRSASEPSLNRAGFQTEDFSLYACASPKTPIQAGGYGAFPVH
In general terms: Alpha assays give light when donor and acceptor beads are brought close together.
Compound `COC(=O)CCS(=O)(=O)Nc1cccc(C(=O)c2c[nH]c3ncc(-c4cnc(OC)nc4)cc23)c1F` [Compound P-0066, methyl 3-[[2-fluoro-3-[5-(2-methoxypyrimidin-5-yl)-1H-pyrrolo[2,3-b]pyridine-3-carbonyl]phenyl]sulfamoyl]propanoate] showed a concentration for half-maximal inhibition (IC50) below 0.1 µM.

With `COc1ncc(-c2cnc3[nH]cc(C(=O)c4cccc(NS(=O)(=O)C5CC5)c4F)c3c2)cn1` [Compound P-0067, N-[2-fluoro-3-[5-(2-methoxypyrimidin-5-yl)-1H-pyrrolo[2,3-b]pyridine-3-carbonyl]phenyl]cyclopropanesulfonamide], the IC50 was below 0.1 µM.

The compound `CCNS(=O)(=O)Nc1cccc(C(=O)c2c[nH]c3ncc(-c4cnc(OC)nc4)cc23)c1F` [Compound P-0068, [3-(ethylsulfamoylamino)-2-fluoro-phenyl]-[5-(2-methoxypyrimidin-5-yl)-1H-pyrrolo[2,3-b]pyridin-3-yl]methanone] gave a 50% inhibitory concentration (IC50) below 0.1 µM.

Compound `CCNS(=O)(=O)Nc1cccc(C(=O)c2c[nH]c3ncc(I)cc23)c1F` [Compound P-0069, [3-(ethylsulfamoylamino)-2-fluoro-phenyl]-(5-iodo-1H-pyrrolo[2,3-b]pyridin-3-yl)methanone] displayed an IC50 below 0.1 µM.

`COc1ncc(-c2cnc3[nH]cc(C(=O)c4cccc(NS(=O)(=O)N(C)C(C)C)c4F)c3c2)cn1` [Compound P-0075, 3-[2-fluoro-3-[[isopropyl(methyl)sulfamoyl]amino]benzoyl]-5-(2-methoxypyrimidin-5-yl)-1H-pyrrolo[2,3-b]pyridine] came in with an IC50 above 0.1 µM.

Consider `CCCN(C)S(=O)(=O)Nc1ccc(F)c(C(=O)c2c[nH]c3ncc(-c4ccc(C5(C#N)CC5)cc4)cc23)c1F` [Compound P-0079, 5-[4-(1-cyanocyclopropyl)phenyl]-3-[2,6-difluoro-3-[[methyl(propyl)sulfamoyl]amino]benzoyl]-1H-pyrrolo[2,3-b]pyridine], for which the IC50 was below 0.1 µM.

In the case of `CCCN(C)S(=O)(=O)Nc1cccc(C(=O)c2c[nH]c3ncc(-c4cnc(NC5CC5)nc4)cc23)c1F` [Compound P-0082, 5-[2-(cyclopropylamino)pyrimidin-5-yl]-3-[2-fluoro-3-[[methyl(propyl)sulfamoyl]amino]benzoyl]-1H-pyrrolo[2,3-b]pyridine], the IC50 is below 0.1 µM.

The compound `COc1ncc(-c2cnc3[nH]cc(C(=O)c4cccc(NS(=O)(=O)N(C)CC5CC5)c4F)c3c2)cn1` [Compound P-0083, 3-[3-[[cyclopropylmethyl(methyl)sulfamoyl]amino]-2-fluoro-benzoyl]-5-(2-methoxypyrimidin-5-yl)-1H-pyrrolo[2,3-b]pyridine] had a half-maximal inhibitory concentration (IC50) below 0.1 µM.

Take `CCCN(C)S(=O)(=O)Nc1cccc(C(=O)c2c[nH]c3ncc(-c4cnc(C5CC5)nc4)cc23)c1F` [Compound P-0086, 5-(2-cyclopropylpyrimidin-5-yl)-3-[2-fluoro-3-[[methyl(propyl)sulfamoyl]amino]benzoyl]-1H-pyrrolo[2,3-b]pyridine]: the IC50 was below 0.1 µM.

In the case of `CCN(C)S(=O)(=O)Nc1cccc(C(=O)c2c[nH]c3ncc(-c4ccc(C5CC5)nc4)cc23)c1F` [Compound P-0087, 5-(6-cyclopropyl-3-pyridyl)-3-[3-[[ethyl(methyl)sulfamoyl]amino]-2-fluoro-benzoyl]-1H-pyrrolo[2,3-b]pyridine], the IC50 was below 0.1 µM.

Turning to `N#Cc1ncc(-c2cnc3[nH]cc(C(=O)c4cccc(NS(=O)(=O)N5CCCC5)c4F)c3c2)cn1` [Compound P-0091, N-[3-[5-(2-cyanopyrimidin-5-yl)-1H-pyrrolo[2,3-b]pyridine-3-carbonyl]-2-fluoro-phenyl]pyrrolidine-1-sulfonamide], the IC50 was below 0.1 µM.

The compound `CN(C)S(=O)(=O)Nc1cccc(C(=O)c2c[nH]c3ncc(-c4cnc(C#N)nc4)cc23)c1F` [Compound P-0096, 5-(2-cyanopyrimidin-5-yl)-3-[3-(dimethylsulfamoylamino)-2-fluoro-benzoyl]-1H-pyrrolo[2,3-b]pyridine] displayed a concentration for half-maximal inhibition (IC50) below 0.1 µM.

Compound `CN(C)S(=O)(=O)Nc1cccc(C(=O)c2c[nH]c3ncc(-c4ccc(C(C)(C)O)cc4)cc23)c1F` [Compound P-0103, 3-[3-(dimethylsulfamoylamino)-2-fluoro-benzoyl]-5-[4-(1-hydroxy-1-methyl-ethyl)phenyl]-1H-pyrrolo[2,3-b]pyridine] registered an IC50 below 0.1 µM.

Compound `CC(C)(O)c1ccc(-c2cnc3[nH]cc(C(=O)c4cccc(NS(=O)(=O)N5CCCC5)c4F)c3c2)cc1` [Compound P-0105, N-[2-fluoro-3-[5-[4-(1-hydroxy-1-methyl-ethyl)phenyl]-1H-pyrrolo[2,3-b]pyridine-3-carbonyl]phenyl]pyrrolidine-1-sulfonamide] showed an IC50 below 0.1 µM.

Turning to `CCN(C)S(=O)(=O)Nc1cccc(C(=O)c2c[nH]c3ncc(-c4cnc(N5CCCC5)nc4)cc23)c1F` [Compound P-0108, 3-[3-1[[ethyl(methyl)sulfamoyl]amino]-2-fluoro-benzoyl]-5-(2-pyrrolidin-1-ylpyrimidin-5-yl)-1H-pyrrolo[2,3-b]pyridine], the IC50 is below 0.1 µM.

Compound `CCCNS(=O)(=O)Nc1cccc(C(=O)c2c[nH]c3ncc(C)cc23)c1F` [Compound P-0223, [2-fluoro-3-(propylsulfamoylamino)phenyl]-(5-methyl-1H-pyrrolo[2,3-b]pyridin-3-yl)methanone] registered an IC50 above 0.1 µM.

In turn, `O=C(c1cccc(NS(=O)(=O)N2CCCC2)c1F)c1c[nH]c2ncc(-c3cnc(NC4CC4)nc3)cc12` [Compound P-0232, N-[3-[5-[2-(cyclopropylamino)pyrimidin-5-yl]-1H-pyrrolo[2,3-b]pyridine-3-carbonyl]-2-fluoro-phenyl]pyrrolidine-1-sulfonamide] came in with an IC50 below 0.1 µM.

Compound `CCOc1cnc(-c2cnc3[nH]cc(C(=O)c4c(F)ccc(NS(=O)(=O)N(C)C)c4F)c3c2)cn1` [Compound P-0244, 3-[3-(dimethylsulfamoylamino)-2,6-difluoro-benzoyl]-5-(5-ethoxypyrazin-2-yl)-1H-pyrrolo[2,3-b]pyridine] yielded an IC50 below 0.1 µM.

Regarding `CN(C)S(=O)(=O)Nc1cccc(C(=O)c2c[nH]c3ncc(-c4ccc(C(C)(C)C#N)cc4)cc23)c1F` [Compound P-0245, 5-[4-(1-cyano-1-methyl-ethyl)phenyl]-3-[3-(dimethylsulfamoylamino)-2-fluoro-benzoyl]-1H-pyrrolo[2,3-b]pyridine], the half-inhibitory concentration (IC50) is below 0.1 µM.

The compound `COC(=O)C1(c2ccc(-c3cnc4[nH]cc(C(=O)c5cccc(NS(=O)(=O)N6CCCC6)c5F)c4c3)cc2)CC1` [Compound P-0254, methyl 1-[4-[3-[2-fluoro-3-(pyrrolidin-1-ylsulfonylamino)benzoyl]-1H-pyrrolo[2,3-b]pyridin-5-yl]phenyl]cyclopropanecarboxylate] displayed an IC50 below 0.1 µM.

Compound `CN(C)S(=O)(=O)Nc1ccc(F)c(C(=O)c2c[nH]c3ncc(-c4ccc(C(C)(C)C#N)cc4)cc23)c1F` [Compound P-0255, 5-[4-(1-cyano-1-methyl-ethyl)phenyl]-3-[3-(dimethylsulfamoylamino)-2,6-difluoro-benzoyl]-1H-pyrrolo[2,3-b]pyridine] registered an IC50 below 0.1 µM.

On to `CCOC(=O)C1CCCN1S(=O)(=O)Nc1cccc(C(=O)c2c[nH]c3ncc(-c4cnc(OC)nc4)cc23)c1F` (stereo not shown) [Compound P-0257, ethyl 1-[[2-fluoro-3-[5-(2-methoxypyrimidin-5-yl)-1H-pyrrolo[2,3-b]pyridine-3-carbonyl]phenyl]sulfamoyl]pyrrolidine-2-carboxylate], for which the IC50 is above 0.1 µM.
